Source: the supplement of paper PMC10331698
± gives the standard deviation of the averaged measurements.

Experiments:
Assay in all cases: level (log10 ratio to DMSO vehicle control); higher = higher biomarker level / cell amount than vehicle control
Settings in all cases: in DMSO
[1] = compound: O=C(O)C(F)(F)C(F)(F)C(F)(F)OC(F)(C(F)(F)F)C(F)(F)F [Perfluoro-4-isopropoxybutanoic acid]
Method: (§1)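 BioMAP Diversity Plus panel of 12 human primary cell co-culture systems (3C, 4H, LPS, SAg, BT, BF4T, BE3C, CASM3C, HDF3CGF, KF3CT, MyoF, Mphg). Compounds were added 1 h before stimulation and left for 24 h (MyoF 48 h; BT 72 h for soluble read-outs or 6 d for IgG). Biomarkers were read by ELISA, cytotoxicity by SRB, PBMC viability and proliferation by Alamar Blue. Each well value was divided by the mean of 8 DMSO control wells on the same plate and log10 transformed; duplicate blinded samples were tested at 4 concentrations.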

Perfluorodecanoic acid = compound: O=C(O)C(F)(F)C(F)(F)C(F)(F)C(F)(F)C(F)(F)C(F)(F)C(F)(F)C(F)(F)C(F)(F)F [Perfluorodecanoic acid]
Method: as §1

Heptafluorobutyramide = compound: NC(=O)C(F)(F)C(F)(F)C(F)(F)F [Heptafluorobutyramide]
Method: as §1

[2] = compound: O=C(O)C(F)(F)C(F)(F)OC(F)(F)F [Perfluoro-3-methoxypropanoic acid]
Method: as §1

Pentafluoropropionamide = compound: NC(=O)C(F)(F)C(F)(F)F [Pentafluoropropionamide]
Method: as §1

[3] = compound: C=C(C)C(=O)OCCC(F)(F)C(F)(F)C(F)(F)C(F)(F)C(F)(C(F)(F)F)C(F)(F)F [(Perfluoro-5-methylhexyl)ethyl 2-methylprop-2-enoate]
Method: as §1

Row | Test System | level (log10) ([1]; 6700 nM) | level (log10) ([1]; 20000 nM) | level (log10) ([1]; 60000 nM) | level (log10) (Perfluorodecanoic acid; 6700 nM) | level (log10) (Perfluorodecanoic acid; 20000 nM) | level (log10) (Heptafluorobutyramide; 6700 nM) | level (log10) (Heptafluorobutyramide; 20000 nM) | level (log10) (Heptafluorobutyramide; 60000 nM) | level (log10) ([2]; 6700 nM) | level (log10) ([2]; 20000 nM) | level (log10) ([2]; 60000 nM) | level (log10) (Pentafluoropropionamide; 6700 nM) | level (log10) (Pentafluoropropionamide; 20000 nM) | level (log10) (Pentafluoropropionamide; 60000 nM) | level (log10) ([3]; 6700 nM) | level (log10) ([3]; 20000 nM)
1 | HDF3CGF:M-CSF | -0.016 ± 0.0071 | -0.0135 ± 0.0078 | -0.0055 ± 0.005 | 0.023 ± 0.0057 | -0.275 ± 0.018 | -0.0145 ± 0.00071 | -0.009 | 0.0165 ± 0.035 | -0.005 ± 0.0085 | -0.0035 ± 0.0021 | -0.005 ± 0.0085 | 0.0015 ± 0.011 | -0.0135 ± 0.0035 | 0.0085 ± 0.06 | -0.0175 ± 0.0078 | -0.0175 ± 0.0035
2 | KF3CT:CD54/ICAM-1 | 0.001 ± 0.016 | -0.035 ± 0.0071 | -0.0495 ± 0.016 | 0.0095 ± 0.013 | -0.003 ± 0.0028 | -0.012 ± 0.014 | -0.002 ± 0.0028 | 0.0015 ± 0.012 | 0.019 ± 0.0085 | 0.009 ± 0.018 | 0.009 ± 0.0071 | -0.009 ± 0.0057 | -0.0045 ± 0.016 | 0.006 ± 0.018 | -0.01 ± 0.0042 | -0.0175 ± 0.0021
3 | KF3CT:CXCL9/MIG | 0.0025 ± 0.011 | 0.0105 ± 0.00071 | 0.0155 ± 0.023 | 0.0065 ± 0.0078 | -0.0185 ± 0.0035 | 0.0065 ± 0.0021 | 0.0005 ± 0.0078 | 0.0155 ± 0.0064 | 0.0125 ± 0.0064 | 0.008 ± 0.0099 | 0.021 ± 0.0014 | 0.0055 ± 0.013 | -0.0015 ± 0.0035 | -0.0085 ± 0.012 | 0.018 ± 0.014 | 0.0215 ± 0.023
4 | BE3C:Keratin 8/18 | -0.0135 ± 0.0021 | -0.024 ± 0.0028 | 0.009 ± 0.013 | 0.0035 ± 0.029 | -0.337 ± 0.0035 | -0.007 ± 0.0071 | -0.028 ± 0.0071 | -0.0265 ± 0.0078 | -0.0155 ± 0.0092 | -0.006 ± 0.017 | -0.003 ± 0.024 | -0.0185 ± 0.0021 | -0.0185 ± 0.005 | -0.0185 ± 0.018 | -0.0185 ± 0.0092 | 0.0005 ± 0.0064
5 | MyoF:TIMP-1 | 0.0135 ± 0.059 | 0.0705 ± 0.083 | 0.0855 ± 0.1 | -0.0345 ± 0.035 | -0.059 ± 0.038 | -0.0285 ± 0.054 | -0.0325 ± 0.05 | -0.0435 ± 0.067 | 0.015 ± 0.055 | 0.0185 ± 0.033 | 0.0455 ± 0.012 | -0.053 ± 0.027 | -0.048 ± 0.034 | -0.0225 ± 0.064 | -0.031 ± 0.023 | -0.024 ± 0.0057
6 | CASM3C:HLA-DR | -0.0205 ± 0.029 | -0.0315 ± 0.023 | -0.013 ± 0.04 | 0 | 0.006 ± 0.014 | 0.003 ± 0.024 | -0.0025 ± 0.0021 | -0.012 ± 0.038 | -0.035 ± 0.033 | -0.0245 ± 0.0092 | 0.004 ± 0.041 | -0.005 ± 0.0042 | 0.0045 ± 0.0092 | -0.001 ± 0.018 | -0.0175 ± 0.019 | -0.01 ± 0.0085
7 | KF3CT:PAI-I | -0.019 ± 0.0028 | -0.0265 ± 0.015 | -0.0125 ± 0.018 | -0.0365 ± 0.023 | -0.144 ± 0.042 | -0.0145 ± 0.0035 | -0.011 ± 0.0028 | 0.0105 ± 0.012 | -0.0035 ± 0.0021 | -0.0045 ± 0.0035 | -0.0195 ± 0.026 | -0.006 ± 0.0057 | 0.002 ± 0.0014 | 0.0075 ± 0.0021 | -0.035 ± 0.047 | -0.05 ± 0.018
8 | 3C:CD106/VCAM-1 | 0.0135 ± 0.00071 | 0.006 ± 0.011 | 0.015 ± 0.02 | -0.0005 ± 0.012 | -0.001 ± 0.021 | -0.0085 ± 0.0021 | -0.01 ± 0.014 | -0.025 | -0.0015 ± 0.0064 | -0.009 ± 0.024 | 0.0015 ± 0.018 | -0.0215 ± 0.013 | -0.009 ± 0.027 | -0.0105 ± 0.005 | -0.032 ± 0.0099 | -0.012 ± 0.0085
9 | KF3CT:CXCL8/IL-8 | 0.0175 ± 0.018 | 0.0335 ± 0.005 | 0.043 ± 0.071 | -0.0225 ± 0.011 | -0.0035 ± 0.018 | 0.003 | 0.002 ± 0.0085 | 0.0095 ± 0.012 | 0.007 ± 0.016 | 0.028 ± 0.031 | 0.017 ± 0.02 | -0.005 ± 0.0042 | -0.0105 ± 0.005 | 0.0215 ± 0.012 | -0.013 ± 0.037 | 0.006 ± 0.03
10 | CASM3C:CD142/Tissue Factor | -0.018 ± 0.033 | -0.011 ± 0.0042 | 0.0205 ± 0.025 | 0.008 ± 0.0042 | -0.0055 ± 0.012 | 0.007 ± 0.034 | -0.0105 ± 0.05 | -0.031 ± 0.041 | -0.022 ± 0.027 | -0.0145 ± 0.04 | -0.0025 ± 0.037 | -0.0025 ± 0.022 | -0.0095 ± 0.018 | -0.0295 ± 0.026 | -0.037 ± 0.024 | -0.0265 ± 0.056
11 | CASM3C:LDLR | 0.012 ± 0.0014 | 0.017 ± 0.011 | 0 ± 0.0014 | -0.0045 ± 0.0078 | 0.0105 ± 0.03 | -0.017 ± 0.0014 | -0.0145 ± 0.0064 | 0.024 ± 0.047 | 0.0105 ± 0.016 | 0.01 ± 0.028 | 0.013 ± 0.013 | 0.003 ± 0.042 | 0.0045 ± 0.011 | 0.0295 ± 0.015 | -0.032 ± 0.03 | 0.018 ± 0.025
12 | lMphg:CD106/VCAM-1 | -0.0135 ± 0.013 | 0.0015 ± 0.028 | 0.014 ± 0.0057 | 0.004 ± 0.0014 | -0.0145 ± 0.053 | 0.011 ± 0.014 | 0.004 ± 0.0071 | 0.013 ± 0.0028 | -0.0005 ± 0.035 | -0.0035 ± 0.021 | -0.0235 ± 0.0035 | 0.0015 ± 0.033 | -0.009 ± 0.021 | -0.0045 ± 0.043 | -0.0315 ± 0.011 | -0.014 ± 0.0057
13 | lMphg:sIL-10 | -0.116 ± 0.018 | -0.04 ± 0.047 | -0.187 ± 0.031 | -0.018 ± 0.055 | -0.036 ± 0.028 | 0.002 ± 0.05 | -0.0445 ± 0.071 | -0.011 ± 0.058 | -0.0385 ± 0.013 | -0.064 ± 0.024 | -0.0485 ± 0.044 | -0.0095 ± 0.044 | -0.01 ± 0.028 | -0.0635 ± 0.12 | 0.0215 ± 0.029 | -0.0195 ± 0.12
14 | lMphg:CCL2/MCP-1 | -0.018 ± 0.0042 | -0.0185 ± 0.0092 | 0.0175 ± 0.0078 | 0.001 ± 0.0042 | 0.0095 ± 0.023 | -0.0035 ± 0.0021 | -0.001 ± 0.038 | 0.0175 ± 0.042 | -0.0175 ± 0.025 | -0.0225 ± 0.029 | -0.0075 ± 0.028 | -0.0145 ± 0.0035 | -0.012 ± 0.0042 | 0 ± 0.03 | 0.014 ± 0.0099 | 0.0175 ± 0.037
15 | CASM3C:Serum Amyloid A | -0.0025 ± 0.0078 | -0.0295 ± 0.013 | 0.0165 ± 0.081 | 0.035 ± 0.031 | 0.0345 ± 0.026 | -0.0555 ± 0.023 | -0.0445 ± 0.042 | -0.0065 ± 0.096 | -0.0155 ± 0.0064 | -0.017 ± 0.0099 | 0.008 ± 0.069 | 0.0045 ± 0.015 | -0.0055 ± 0.0035 | 0.0245 ± 0.005 | -0.0325 ± 0.021 | 0.025 ± 0.0085
16 | CASM3C:CD106/VCAM-1 | -0.003 ± 0.0071 | -0.016 ± 0.016 | -0.007 ± 0.021 | 0.0015 ± 0.0092 | -0.036 ± 0.0085 | -0.0215 ± 0.053 | -0.0085 ± 0.033 | -0.0265 ± 0.059 | -0.0155 ± 0.013 | -0.03 ± 0.0071 | 0.012 ± 0.02 | -0.016 ± 0.016 | -0.014 ± 0.02 | -0.022 ± 0.011 | -0.017 ± 0.014 | -0.0175 ± 0.026
17 | HDF3CGF:SRB | -0.0125 ± 0.025 | 0.0115 ± 0.037 | -0.0055 ± 0.015 | 0.0725 ± 0.044 | 0.131 ± 0.016 | 0.018 ± 0.0014 | 0.0035 ± 0.025 | 0.0075 ± 0.03 | -0.0005 ± 0.042 | 0.014 ± 0.0071 | 0 ± 0.023 | -0.0105 ± 0.011 | 0.0265 ± 0.079 | 0.0445 ± 0.086 | 0.0055 ± 0.0092 | 0.008 ± 0.0028
18 | MyoF:CD106/VCAM-1 | -0.023 ± 0.017 | 0.0095 ± 0.0035 | -0.001 | -0.019 ± 0.0071 | -0.084 ± 0.02 | -0.0165 ± 0.0064 | -0.017 ± 0.028 | -0.0145 ± 0.018 | -0.014 ± 0.0042 | 0.0035 ± 0.013 | 0.001 | -0.013 ± 0.017 | 0.006 ± 0.028 | -0.0075 ± 0.0021 | 0.0095 ± 0.0092 | -0.013 ± 0.0028
